Test system: 422866-222-R5-J1-PDC complex spheroid viability
Assay: Anticancer human tumor 422866-222-R5-J1-PDC patient-derived pancreatic adenocarcinoma cell line growth inhibition [POLQ]
Details: for IC50: curve of first compound; for viability, T/C: stronger effect = lower value
Method in brief: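 Three-cell-type spheroids modelling solid tumor plus stroma served as the readout system; POL inhibitors were tested individually and in combination, concentration ranges set by clinical Cmax where known.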

[1] = second compound 0.0316 µM, first compound 0.0316 µM
[2] = second compound 0.0316 µM, first compound 0.1 µM
[3] = second compound 0.1 µM, first compound 0.0316 µM
[4] = second compound 0.1 µM, first compound 0.1 µM
[5] = second compound 0.316 µM, first compound 0.0316 µM
[6] = second compound 0.316 µM, first compound 0.1 µM
[7] = second compound 1 µM, first compound 0.0316 µM
[8] = second compound 1 µM, first compound 0.1 µM
[9] = second compound 3.16 µM, first compound 0.0316 µM
[10] = second compound 3.16 µM, first compound 0.1 µM
[11] = second compound 10 µM, first compound 0.0316 µM
[12] = second compound 10 µM, first compound 0.1 µM
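Also: spheroids exposed to compounds for one week before readout.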
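For viability, T/C in this document: percent of DMSO vehicle wells luminescence so 100% = untreated viability.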

For `Cn1ncnc1[C@H]1c2n[nH]c(=O)c3cc(F)cc(c23)N[C@@H]1c1ccc(F)cc1` + COC1C(OC(N)=O)C(O)C(Oc2ccc3c(O)c(NC(=O)c4ccc(O)c(CC=C(C)C)c4)c(=O)oc3c2C)OC1(C)C, the IC50 (second compound 0.0316 µM) was > 100 nM, the IC50 (second compound 0.1 µM) was > 100 nM and the IC50 (second compound 0.316 µM) was > 100 nM. The IC50 (second compound 1 µM) was > 100 nM, the IC50 (second compound 3.16 µM) was > 100 nM and the IC50 (second compound 10 µM) was > 100 nM. It also gave a viability, T/C (second compound 0.0316 µM, first compound 0.000316 µM) of 108%, a viability, T/C (second compound 0.0316 µM, first compound 0.001 µM) of 100% and a viability, T/C (second compound 0.0316 µM, first compound 0.00316 µM) of 90%. The viability, T/C (second compound 0.0316 µM, first compound 0.01 µM) was 88.6%, the viability, T/C [1] was 86.6% and the viability, T/C [2] was 83.1%. The viability, T/C (second compound 0.1 µM, first compound 0.000316 µM) was 119%, the viability, T/C (second compound 0.1 µM, first compound 0.001 µM) was 87.2% and the viability, T/C (second compound 0.1 µM, first compound 0.00316 µM) was 104%. For the same molecule, the viability, T/C (second compound 0.1 µM, first compound 0.01 µM) was 87%, the viability, T/C [3] was 88.5% and the viability, T/C [4] was 90.3%. It also gave a viability, T/C (second compound 0.316 µM, first compound 0.000316 µM) of 96.1%, a viability, T/C (second compound 0.316 µM, first compound 0.001 µM) of 104% and a viability, T/C (second compound 0.316 µM, first compound 0.00316 µM) of 98.8%. It also gave a viability, T/C (second compound 0.316 µM, first compound 0.01 µM) of 78.9%, a viability, T/C [5] of 87.3% and a viability, T/C [6] of 85.3%. For the same molecule, the viability, T/C (second compound 1 µM, first compound 0.000316 µM) was 99%, the viability, T/C (second compound 1 µM, first compound 0.001 µM) was 110% and the viability, T/C (second compound 1 µM, first compound 0.00316 µM) was 100%. For the same molecule, the viability, T/C (second compound 1 µM, first compound 0.01 µM) was 85.4%, the viability, T/C [7] was 89.6% and the viability, T/C [8] was 86.6%. It also gave a viability, T/C (second compound 3.16 µM, first compound 0.000316 µM) of 98%, a viability, T/C (second compound 3.16 µM, first compound 0.001 µM) of 87.1% and a viability, T/C (second compound 3.16 µM, first compound 0.00316 µM) of 105%. The viability, T/C (second compound 3.16 µM, first compound 0.01 µM) was 100%, the viability, T/C [9] was 89.8% and the viability, T/C [10] was 95.6%. For the same molecule, the viability, T/C (second compound 10 µM, first compound 0.000316 µM) was 78.8%, the viability, T/C (second compound 10 µM, first compound 0.001 µM) was 86.2% and the viability, T/C (second compound 10 µM, first compound 0.00316 µM) was 97.1%. For the same molecule, the viability, T/C (second compound 10 µM, first compound 0.01 µM) was 92.3%, the viability, T/C [11] was 88.7% and the viability, T/C [12] was 87.7%.

In the case of `CC(=O)O[C@H]1C(=O)[C@@]2(C)[C@H]([C@H](OC(=O)c3ccccc3)[C@]3(O)C[C@H](OC(=O)[C@H](O)[C@@H](NC(=O)c4ccccc4)c4ccccc4)C(C)=C1C3(C)C)[C@]1(OC(C)=O)CO[C@@H]1C[C@@H]2O` + Cc1cccc(N(C)C(=O)C2C(O)CCN2c2nc(C)cc(C(F)(F)F)c2C#N)c1, the IC50 (second compound 0.0316 µM) is reported as < 9.49 nM, the IC50 (second compound 0.1 µM) is reported as > 3000 nM and the IC50 (second compound 0.316 µM) is reported as > 3000 nM. The IC50 (second compound 1 µM) was < 9.49 nM, the IC50 (second compound 3.16 µM) was > 3000 nM and the IC50 (second compound 10 µM) was < 9.49 nM. It also gave a viability, T/C (second compound 0.0316 µM, first compound 0.00949 µM) of 48.8%, a viability, T/C (second compound 0.0316 µM, first compound 0.03 µM) of 47.8% and a viability, T/C (second compound 0.0316 µM, first compound 0.0949 µM) of 44.6%. It also gave a viability, T/C (second compound 0.0316 µM, first compound 0.3 µM) of 53%, a viability, T/C (second compound 0.0316 µM, first compound 0.949 µM) of 52.6% and a viability, T/C (second compound 0.0316 µM, first compound 3 µM) of 56%. The viability, T/C (second compound 0.1 µM, first compound 0.00949 µM) was 54%, the viability, T/C (second compound 0.1 µM, first compound 0.03 µM) was 47.9% and the viability, T/C (second compound 0.1 µM, first compound 0.0949 µM) was 58.1%. The viability, T/C (second compound 0.1 µM, first compound 0.3 µM) was 50.2%, the viability, T/C (second compound 0.1 µM, first compound 0.949 µM) was 49.4% and the viability, T/C (second compound 0.1 µM, first compound 3 µM) was 52.6%. The viability, T/C (second compound 0.316 µM, first compound 0.00949 µM) was 54%, the viability, T/C (second compound 0.316 µM, first compound 0.03 µM) was 51.9% and the viability, T/C (second compound 0.316 µM, first compound 0.0949 µM) was 55.2%. It also gave a viability, T/C (second compound 0.316 µM, first compound 0.3 µM) of 46.3%, a viability, T/C (second compound 0.316 µM, first compound 0.949 µM) of 52.3% and a viability, T/C (second compound 0.316 µM, first compound 3 µM) of 56.6%. It also gave a viability, T/C (second compound 1 µM, first compound 0.00949 µM) of 49.8%, a viability, T/C (second compound 1 µM, first compound 0.03 µM) of 41.3% and a viability, T/C (second compound 1 µM, first compound 0.0949 µM) of 51.9%. The viability, T/C (second compound 1 µM, first compound 0.3 µM) was 55.6%, the viability, T/C (second compound 1 µM, first compound 0.949 µM) was 50.9% and the viability, T/C (second compound 1 µM, first compound 3 µM) was 59.8%. For the same molecule, the viability, T/C (second compound 3.16 µM, first compound 0.00949 µM) was 57.5%, the viability, T/C (second compound 3.16 µM, first compound 0.03 µM) was 46.9% and the viability, T/C (second compound 3.16 µM, first compound 0.0949 µM) was 59.7%. The viability, T/C (second compound 3.16 µM, first compound 0.3 µM) was 49.8%, the viability, T/C (second compound 3.16 µM, first compound 0.949 µM) was 57.8% and the viability, T/C (second compound 3.16 µM, first compound 3 µM) was 67.8%. It also gave a viability, T/C (second compound 10 µM, first compound 0.00949 µM) of 47.7%, a viability, T/C (second compound 10 µM, first compound 0.03 µM) of 48% and a viability, T/C (second compound 10 µM, first compound 0.0949 µM) of 42.9%. It also gave a viability, T/C (second compound 10 µM, first compound 0.3 µM) of 51.6%, a viability, T/C (second compound 10 µM, first compound 0.949 µM) of 64.9% and a viability, T/C (second compound 10 µM, first compound 3 µM) of 68.3%.

For `CCc1cc2c(N3CCc4c(cc(Cn5ccnc5)cc4-c4cn(C)nc4C(F)(F)F)C3=O)cc(C)nc2c(OC)n1` + Cc1cccc(N(C)C(=O)C2C(O)CCN2c2nc(C)cc(C(F)(F)F)c2C#N)c1, the IC50 (second compound 0.0316 µM) was > 10000 nM, the IC50 (second compound 0.1 µM) was > 10000 nM and the IC50 (second compound 0.316 µM) was > 10000 nM. For the same molecule, the IC50 (second compound 1 µM) was > 10000 nM, the IC50 (second compound 3.16 µM) was > 10000 nM and the IC50 (second compound 10 µM) was > 10000 nM. It also gave a viability, T/C [1] of 78.4%, a viability, T/C [2] of 73.7% and a viability, T/C (second compound 0.0316 µM, first compound 0.316 µM) of 93.1%. For the same molecule, the viability, T/C (second compound 0.0316 µM, first compound 1 µM) was 99.6%, the viability, T/C (second compound 0.0316 µM, first compound 3.16 µM) was 104% and the viability, T/C (second compound 0.0316 µM, first compound 10 µM) was 98%. It also gave a viability, T/C [3] of 84.6%, a viability, T/C [4] of 83.5% and a viability, T/C (second compound 0.1 µM, first compound 0.316 µM) of 92.2%. For the same molecule, the viability, T/C (second compound 0.1 µM, first compound 1 µM) was 88.7%, the viability, T/C (second compound 0.1 µM, first compound 3.16 µM) was 101% and the viability, T/C (second compound 0.1 µM, first compound 10 µM) was 119%. The viability, T/C [5] was 91.8%, the viability, T/C [6] was 88.7% and the viability, T/C (second compound 0.316 µM, first compound 0.316 µM) was 81.2%. The viability, T/C (second compound 0.316 µM, first compound 1 µM) was 94.9%, the viability, T/C (second compound 0.316 µM, first compound 3.16 µM) was 104% and the viability, T/C (second compound 0.316 µM, first compound 10 µM) was 94.4%. The viability, T/C [7] was 84.5%, the viability, T/C [8] was 82.7% and the viability, T/C (second compound 1 µM, first compound 0.316 µM) was 86.6%. The viability, T/C (second compound 1 µM, first compound 1 µM) was 82.8%, the viability, T/C (second compound 1 µM, first compound 3.16 µM) was 93.8% and the viability, T/C (second compound 1 µM, first compound 10 µM) was 93.5%. The viability, T/C [9] was 86.3%, the viability, T/C [10] was 85.8% and the viability, T/C (second compound 3.16 µM, first compound 0.316 µM) was 92.4%. It also gave a viability, T/C (second compound 3.16 µM, first compound 1 µM) of 91.6%, a viability, T/C (second compound 3.16 µM, first compound 3.16 µM) of 99.8% and a viability, T/C (second compound 3.16 µM, first compound 10 µM) of 90.6%. It also gave a viability, T/C [11] of 88.9%, a viability, T/C [12] of 88.5% and a viability, T/C (second compound 10 µM, first compound 0.316 µM) of 93.9%. The viability, T/C (second compound 10 µM, first compound 1 µM) was 78.2%, the viability, T/C (second compound 10 µM, first compound 3.16 µM) was 95.8% and the viability, T/C (second compound 10 µM, first compound 10 µM) was 94.8%.

— PubChem BioAssay AID1963844 (Molecular Pharmacology Branch, DTP, NCI, 2024)
